Molecules are shown by their SMILES.

The target of one experiment is T1, TrkC (Homo sapiens, UniProt Q16288).
T1 construct: expressed in transfected cells
Kind of experiment: TrkC phosphorylation in NIH-3T3 cells stably transfected with TrkC. In kind it is cell-based. Conditions: 500 nM, 30′. How it is done:
For immunoprecipitation experiments PC12 or HEK293T, cells were used when at 70–80% confluent. Cells were starved of serum for 4 h and subsequently treated with 100 ng/mL NGF or 500 nM of compound ENT-A013 for 30′. Cells were then lysed in Pierce™ IP Lysis Buffer (87788, Thermo Fischer Scientific, Waltham, MA, USA) containing proteases (539138, Calbiochem, Darmstadt, Germany) and phosphatase inhibitors (524629, Calbiochem, Darmstadt, Germany). Lysates were then immunoprecipitated overnight at 4 °C with TrkA antibody (1:100, 06-574, Sigma-Aldrich, St. Louis, MO, USA) (Table S1) or p75^NTR antibody (1:100, ab6172, Abcam plc., Cambridge, UK) followed by 4 h incubation with protein G-plus agarose beads (sc-2002, Santa Cruz Biotechnology, Inc., Dallas, TX, USA). Beads were then collected, washed 3X with lysis buffer, resuspended in SDS loading buffer and subjected to Western blot against phosphorylated Tyrosine (1:1000, BAM1676, R&D Systems, Inc., Minneapolis, MN, USA) or Traf6 antibody (1:2000, ab33915, Abcam, plc., Cambridge, UK). […]
phosphorylated any of those. […] Quantification (E) […]
Supplementary Figure S3: Primary DRG neurons were cultured in the presence of ENT-A013 (500nM, supplemented every 48hrs) and a neutralizing antibody against NGF for 5 days and then neurite length was measured by immunostaining against Tuj1 . […]

Another experiment relates to phosphorylated JNK. The experiment in a line: JNK phosphorylation in primary hippocampal neurons treated with oligomeric Aβ (Western blot). In kind it is cell-based, mouse. Conditions: 500 nM every 24 h, 48 h. How it is done: (§1) treated with ENT-A013 (500nM) or Neurotrophin-3 (100ng/ml) for 30’ and then subjected to Western Blot against phosphorylated TrkC, Akt and Erk1/2. […]
(§2) phosphorylated any of those. (D) CellTox assay was performed in NIH-3T3-TrkB cells that were starved from serum and treated with ENT-A013 or BDNF for 24hrs. Quantification (E) […]
(§3) negative control (Serum Free).
(§4) Supplementary Figure S3: Primary DRG neurons were cultured in the presence of ENT-A013 (500nM, supplemented every 48hrs) and a neutralizing antibody against NGF for 5 days and then neurite length was measured by immunostaining against Tuj1 .
(§5) Supplementary Figure S4: Primary hippocampal neurons at 14-16 DIV were treated with oligomeric Aβ and in the presence of ENT-A013 (500nM, supplemented every 24hrs) for 48hrs and then were subjected to Western Blot against phosphorylated JNK. A representative blot […]
On the technique in general: In western blotting, separated proteins are transferred to a membrane and probed.

The test system of experiment [1] is Primary hippocampal neurons. The experiment in a line: Synaptophysin synapse assay in primary hippocampal neurons treated with oligomeric Aβ. In kind it is cell-based, mouse. The conditions noted are these: 5 μM oligomeric Aβ, 500 nM, 4 h. The method, then:
Primary hippocampal neurons were isolated from E17.5 mouse embryos (C57BL/6J, The Jackson Laboratory, Bar Harbor, ME, USA) as previously described and cultured with Neurobasal medium containing 2% B27, 1X GlutaMax, 10 mM HEPES and 1% PenStrep. Cells were maintained in a humified incubator at 37 °C and 5% CO2. For TUNEL assay, cells were left in culture for 16–18 days and then treated with 5 μM oligomeric Aβ along with ENT-A013 (500 nM, every 24 h) for 48 h. Cells were then fixed with 4% PFA and labelled with TUNEL (F. Hoffmann–La Roche Ltd., Basel, Switzerland, cat# 11684795910) following the manufacturer’s protocol. Subsequently, cells were immunostained against Tuj1 and imaged with confocal microscopy. For synaptic plasticity assay, cells were left in culture for 16–18 days and then treated with 5 μM oligomeric Aβ along with ENT-A013 (500 nM) for 4 h. Cells were then fixed with 4% PFA and immunostained against Tuj1 and Synaptophysin (1:1000, PA1-1043, Invitrogen, Waltham, MA, USA), anti-mouse Alexa fluor 488 (1:1000, A-11029, Invitrogen, Waltham, MA, USA) and anti-rabbit Alexa fluor 546 (1:1000, A10040, Invitrogen, Waltham, MA, USA). Images were acquired using confocal microscopy and the total area of synaptophysin positive puncta was measured and normalized to Tuj1 total area.

Another experiment has as its system Akt and Erk1/2. The experiment in a line: Akt and Erk1/2 phosphorylation in NIH-3T3 cells transfected with TrkB or TrkC. The conditions noted are these: 500 nM, 30′. Type of experiment: cell-based. The method, then: cells were stably transfected with TrkB and treated with ENT-A013 (500nM) or BDNF (500ng/ml) for 30’ and then subjected to Western Blot against phosphorylated TrkB and […]
either TrkB or Akt by ENT-A013. (C) NIH-3T3 cells were stably transfected with TrkC and (1 picture or pasted object on this page, not shown here) […]
as §1, §2, §3, §4, §5

T1 sequence (Q16288 32-839, species assumed): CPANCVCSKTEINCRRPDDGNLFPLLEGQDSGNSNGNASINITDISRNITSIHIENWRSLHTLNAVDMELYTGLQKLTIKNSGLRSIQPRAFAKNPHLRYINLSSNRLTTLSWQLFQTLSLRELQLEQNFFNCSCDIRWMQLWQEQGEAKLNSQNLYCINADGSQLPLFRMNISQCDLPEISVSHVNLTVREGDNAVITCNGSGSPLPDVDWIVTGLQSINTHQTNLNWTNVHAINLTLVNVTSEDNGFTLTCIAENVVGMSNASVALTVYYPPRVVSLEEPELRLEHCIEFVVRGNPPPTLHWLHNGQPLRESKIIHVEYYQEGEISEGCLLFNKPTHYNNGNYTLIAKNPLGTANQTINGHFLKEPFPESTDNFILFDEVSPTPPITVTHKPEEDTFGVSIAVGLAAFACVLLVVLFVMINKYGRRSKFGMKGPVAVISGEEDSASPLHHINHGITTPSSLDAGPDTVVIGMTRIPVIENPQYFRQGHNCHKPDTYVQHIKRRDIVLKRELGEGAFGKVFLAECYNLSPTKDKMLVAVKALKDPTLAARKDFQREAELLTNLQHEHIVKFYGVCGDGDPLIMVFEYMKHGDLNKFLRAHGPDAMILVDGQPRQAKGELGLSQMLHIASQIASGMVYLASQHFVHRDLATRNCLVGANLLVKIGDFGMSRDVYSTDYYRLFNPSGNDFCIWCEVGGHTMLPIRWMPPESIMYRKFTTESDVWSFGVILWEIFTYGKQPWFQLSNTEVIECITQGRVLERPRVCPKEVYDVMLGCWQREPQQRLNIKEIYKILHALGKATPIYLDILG

Regarding `CC12CCC(O)CC1=CCC1C2CCC2(C)C1CCC21CC1C=CBr` [ENT-A013, (2′R,3S,17S)-2′-(2-Bromovinyl)-5-Androstene-17,1′-Cyclopropan-3-ol], at TrkC, the “TrkC phosphorylation (in words)” value is given as “did not induce phosphorylation”. In addition, the “phosphorylated JNK levels (in words)” value in the experiment with phosphorylated JNK is on record as “reduced phosphorylated JNK levels similar to untreated control cells”. In addition, the “synapse number (synaptophysin area normalized to Tuj1 area)” value in experiment [1] is 1.08 ± 0.08 % of control FC. Also, the “Akt phosphorylation (in words)” value in the experiment on Akt and Erk1/2 (NIH-3T3 TrkB cells) is “no significant difference in the phosphorylation”. Besides, the “Akt and Erk1/2 phosphorylation (in words)” value with Akt and Erk1/2 (NIH-3T3 TrkC cells) is given as “failed to”.

Source of the values: paper PMC8945229, “Development and Biological Characterization of a Novel Selective TrkA Agonist with Neuroprotective Properties against Amyloid Toxicity” (Biomedicines, 2022).
